{"source": "patent US20230130225A1", "about": "“METHOD OF TREATING AMYOTROPHIC LATERAL SCLEROSIS WITH MYELOPEROXIDASE INHIBITOR” (Biohaven Therapeutics Ltd., priority 2020, published 2023)", "origin": "cited, not measured here", "key": {"[1]": {"conditions": "healthy subjects, multiple dosages of up to 900 mg BID"}, "[2]": {"conditions": "participants with Parkinson's disease and MSA, dosages of up to 600 mg BID for 8-12 weeks"}, "MPO": {"molecular_target": "T1, MPO (Homo sapiens, UniProt P05164)", "T1 construct": "from tissue; host or cells: plasma of clinical study participants", "T1 sequence (P05164 279-745 limits assumed)": "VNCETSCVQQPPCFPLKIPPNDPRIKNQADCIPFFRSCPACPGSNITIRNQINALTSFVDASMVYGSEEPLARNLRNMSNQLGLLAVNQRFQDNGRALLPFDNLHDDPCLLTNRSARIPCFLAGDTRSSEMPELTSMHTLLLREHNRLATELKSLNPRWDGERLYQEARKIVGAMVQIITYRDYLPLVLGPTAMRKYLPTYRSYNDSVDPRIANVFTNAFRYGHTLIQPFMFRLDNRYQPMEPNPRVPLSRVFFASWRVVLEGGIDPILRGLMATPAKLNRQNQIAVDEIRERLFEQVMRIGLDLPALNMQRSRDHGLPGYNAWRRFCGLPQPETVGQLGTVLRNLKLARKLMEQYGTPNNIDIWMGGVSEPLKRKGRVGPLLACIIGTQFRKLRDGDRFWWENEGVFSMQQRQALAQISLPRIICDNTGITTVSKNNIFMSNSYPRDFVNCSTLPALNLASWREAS", "T1 sequence (P05164 165-273 limits assumed)": "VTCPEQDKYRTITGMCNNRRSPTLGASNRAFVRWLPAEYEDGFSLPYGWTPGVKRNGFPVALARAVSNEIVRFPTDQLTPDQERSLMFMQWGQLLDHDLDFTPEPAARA", "conditions": "600 mg BID, Phase 2 studies"}, "TSPO": {"test_system": "TSPO", "conditions": "600 mg BID, Phase 2 studies"}, "[3]": {"conditions": "subjects with MSA, 12 weeks, 600 mg BID"}}, "note": "Like-named read-outs stand apart in the source and are kept apart here."}
{"molecule": "CC(C)OCCn1c(=S)[nH]c(=O)c2[nH]ccc21", "note": "[verdiperstat, 1-(2-isopropoxyethyl)-2-thioxo-1,2,3,5-tetrahydro-pyrrolo[3,2-d]pyrimidin-4-one]", "values": [{"measurement": "safety and tolerability", "setting": "[1]", "value": "generally safe and well tolerated"}, {"measurement": "safety and tolerability", "setting": "[2]", "value": "generally safe and well tolerated"}, {"measurement": "MPO activity in plasma", "setting": "MPO", "value": "decreased"}, {"measurement": "TSPO binding on brain PET imaging (microglial activation/neuroinflammation)", "setting": "TSPO", "value": "reduced"}, {"measurement": "trends on clinical efficacy measures", "setting": "[3]", "value": "favorable, dose-dependent trends"}]}
